The values below come from patent publication US20190269705A1, “METHODS AND MATERIALS FOR TREATING GRAFT VERSUS HOST DISEASE” (Regents of the University of Minnesota, priority 2017, published 2019).

One test deals with naïve CD4+ T cells. Description: Extracellular Acidification Rate on instantaneous T cell activation (Seahorse). The format is cell-based, mouse. As to conditions: αCD3/CD28 injection in the presence of vehicle or CB839. The procedure: (§1) Experiments were carried out on Agilent Seahorse XF96 bioanalyzer (Agilent). Briefly, wild type CD4+ cells were isolated as previous and activated for 3 days on CD3/CD28 as previously described, or skewed to Th1 and Th17 subsets as described above. T cells were spun onto XF96 Cell-Tak (BD Bioscience, Cat #: 354240) coated plates and rested in Seahorse XF RPMI 1640 media supplemented with glutamine, sodium pyruvate, and glucose. For immediate metabolic response, CB839 and UK5099 were injected separately or in combination, and OCR and ECAR measured.
(§2) Experiments were carried out on Agilent Seahorse XF96 bioanalyzer (Agilent). Briefly, wild type CD4+ cells were isolated as previous and activated for 3 days on αCD3/CD28 coated plates as previously described, or skewed to Th1 and Th17 subsets as described above. T cells were isolated and spun onto XF96 Cell-Tak (BD Bioscience, Cat #: 354240) coated plates and rested in Seahorse XF RPMI 1640 media supplemented with glutamine, sodium pyruvate, and glucose. For immediate metabolic response, 1 μM CB839 and 5 μM UK5099 (Cat #: PZ0160-5MG) were injected separately or in combination, and OCR and ECAR measured. For activation response, 1 uM CB839 was injected into IL-7 maintained naïve CD4+ T cells in seahorse medium and allowed to incubate for 20 minutes, followed by soluble αCD3/CD28 injection.

The next test deals with stimulated T cells. The experiment in a line: Oxygen Consumption Rate (Seahorse) of stimulated CD4 T cells. As to conditions: CD4 cells stimulated on CD3/CD28; 1 μM CB839, 5 μM UK5099 injected separately or in combination. The class given is cell-based, mouse. The procedure:
as §1, §2

A further test has as its system Th17 cells. Description: 3H-2-deoxyglucose uptake and ECAR, Th17. The class given is cell-based, mouse. The procedure:
Glucose uptake assays were performed as described elsewhere (see, e.g., Macintyre et al., 2014 Cell Metab. 20(1):61-72). Naïve CD4+ T cells were differentiated into Th1 and Th17 cells, in triplicate, in the presence or absence of CB839 over 5 days and spun down after reisolation using CD4 kit as previously described. Cells were washed 2× in PBS, counted, then rested in 1 mL Kreb's Ringers HEPES (KRH) for 10 minutes. Cells were spun and resuspended to 5×10^5 cells/50 uL KRH for glucose uptake assay. Briefly, cells were […]. Cells incubated for 10 minutes at 37° C. Immediately after incubation, reaction was quenched with 200 μM phloretin (Calbiochem, Cat #: 524488). Cells were spun, washed, and then resuspended in scint fluid for counting on Beckman-Coulter scintillation counter. Pathway analysis of altered metabolites was performed using Metaboanalyst 3.0 (metaboanalyst. ca/faces/home.xhtml).
as §1
Glucose uptake assays were performed as previously described (Macintyre et al.,2014). Naïve CD4+ T cells were differentiated into Th1 and Th17 cells, in triplicate, in the presence or absence of CB839 over five days and spun down after reisolation using CD4 kit as previously described. At day 3 and 5, cells were removed, washed twice in PBS, counted, then rested in 1 mL Kreb's Ringers HEPES (KRH) for at least 10 minutes. Cells were spun and resuspended to 5×10^5 cells/50 μL KRH for glucose uptake assay. Briefly, 3H-2-deoxyglucose was suspended in KRH bubble layered in oil, and cells were added to this bubble. Cells were incubated for 10 minutes at 37° C. Immediately after incubation, reaction was quenched with 200 μM phloretin (Calbiochem, Cat #: 524488). Cells were spun, washed, and then resuspended in scintilation fluid for counting on Beckman-Coulter scintillation counter (3H, 1 min/sample read).
as §2

In the next test the test system is Treg cells. The experiment in a line: CD4 T cells in Treg skewing conditions, flow cytometry. Conditions: 5 days, CB839 vs vehicle.
[1] abbreviates: Th17, day 5, listed as GLS inhibitor.

Entries after “also recorded” stand apart in the source; their conditions may differ.

As for `O=C(Cc1cccc(OC(F)(F)F)c1)Nc1ccc(CCCCc2nnc(NC(=O)Cc3ccccn3)s2)nn1` [CB839], the “early events in T cell activation (ECAR)” value in the test with naïve CD4+ T cells was “did not to be affected”. In the test on stimulated T cells, the “oxygen consumption (T cell respiration)” value is reported as “neither UK5099 nor CB839 were sufficient on their own to reduce T cell respiration; also recorded: neither UK5099 nor CB839 were sufficient to reduce T cell respiration alone”. Also, the glucose uptake result in the test with Th17 cells (Th17, day 5) is “decreased”; in the test on Th17 cells (setting [1]), “remained impaired”; in the test with Th17 cells (Th17, day three) it was “reduced”. The “media acidification (ECAR, glycolytic flux)” value in the test on Th17 cells (Th17, day 5) is on record as “decreased”; in the test on Th17 cells (setting [1]) it was “remained impaired”. Further, the Treg differentiation entry with Treg cells is given as “unchanged”.
